# In paper PMC12057336 (Antimicrobial Agents and Chemotherapy, 2025):
# What was measured:
# human OATP1B1 = human OATP1B1 (Homo sapiens, UniProt Q9Y6L6); settings: 5 µM; 10 min; 37°C; vs mock cells
# Method: (§1) OATP1B1-, OATP1B3-, OATP2B1-, NTCP-, OAT1-, and OAT3-transfected HEK293 cells were cultured in DMEM supplemented with 10% FBS, 100 U/mL penicillin-streptomycin at 37°C with 95% relative humidity atmosphere containing 5% CO2. All cells were seeded in 24-well plates at a density of 4 × 10^5 cells/well and cultured for 1–2 days until they reached 80%–90% confluence. Prior to the initiation of uptake studies, the cells were washed twice with HBSS buffer at 37°C. Membrane vesicles were stored at −80°C and thawed at 37°C prior to the initiation of the studies.
# (§2) All uptake tests were performed in triplicates. The activities of transporter-transfected HEK293 cells were evaluated using relevant positive substrates and inhibitors. E17G (5 µM, OATP1B1 and OATP1B3), ES (2 µM, OATP2B1), ES (5 µM, OAT3), TCA (10 µM, NTCP), and PAH (20 µM, OAT1) were used as substrates of the transporters. The inhibitors for each transporter were rifampicin (200 µM, OATP1B1 and OATP1B3), erlotinib (10 µM, OATP2B1), CsA (20 µM, NTCP), and probenecid (200 µM, OAT1 and OAT3).
# (§3) The cells were washed three times with ice-cold HBSS buffer. […] The total protein concentration was measured using a BCA Protein Assay Kit. The uptake rates of HEK293-OATP1B1, HEK293-OATP1B3, HEK293-OATP2B1, HEK293-NTCP, HEK293-OAT1, HEK293-OAT3, and mock cells were calculated. […]
# human OATP1B3 = human OATP1B3 (Homo sapiens, UniProt Q9NPD5); settings: 5 µM; 10 min; 37°C; vs mock cells
# human OATP1B3, sequence (Q9NPD5 whole entry): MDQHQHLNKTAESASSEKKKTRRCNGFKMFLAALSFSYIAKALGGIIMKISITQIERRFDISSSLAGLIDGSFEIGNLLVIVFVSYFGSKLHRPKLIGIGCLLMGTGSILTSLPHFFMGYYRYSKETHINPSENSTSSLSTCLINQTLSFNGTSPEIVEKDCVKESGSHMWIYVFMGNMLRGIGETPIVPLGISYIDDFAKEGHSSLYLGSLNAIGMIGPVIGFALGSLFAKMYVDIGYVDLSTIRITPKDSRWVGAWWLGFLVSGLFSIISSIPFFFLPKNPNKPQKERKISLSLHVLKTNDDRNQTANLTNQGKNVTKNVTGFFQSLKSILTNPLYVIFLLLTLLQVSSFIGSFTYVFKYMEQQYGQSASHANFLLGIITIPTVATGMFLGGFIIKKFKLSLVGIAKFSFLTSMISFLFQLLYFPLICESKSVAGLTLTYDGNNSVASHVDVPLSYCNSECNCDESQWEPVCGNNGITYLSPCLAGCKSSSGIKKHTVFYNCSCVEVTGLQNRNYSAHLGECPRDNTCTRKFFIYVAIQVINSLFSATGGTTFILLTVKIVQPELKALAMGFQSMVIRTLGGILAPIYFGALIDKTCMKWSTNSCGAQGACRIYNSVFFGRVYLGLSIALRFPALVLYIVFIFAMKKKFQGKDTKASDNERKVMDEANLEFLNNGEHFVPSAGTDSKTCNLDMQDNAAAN
# Method: as §1, §2, §3
# MAT1 = tested on: MAT1; set-up: method as in PMID 27645247, PMID 26976869, PMID 27550354; settings: cited from earlier work
# OCT2 = settings: cited from earlier work
# OCT3 = settings: cited from earlier work
# MATE2-K = settings: cited from earlier work
# OATP2B1 = settings: cited from earlier work
# human OATP1B1, sequence (Q9Y6L6 whole entry): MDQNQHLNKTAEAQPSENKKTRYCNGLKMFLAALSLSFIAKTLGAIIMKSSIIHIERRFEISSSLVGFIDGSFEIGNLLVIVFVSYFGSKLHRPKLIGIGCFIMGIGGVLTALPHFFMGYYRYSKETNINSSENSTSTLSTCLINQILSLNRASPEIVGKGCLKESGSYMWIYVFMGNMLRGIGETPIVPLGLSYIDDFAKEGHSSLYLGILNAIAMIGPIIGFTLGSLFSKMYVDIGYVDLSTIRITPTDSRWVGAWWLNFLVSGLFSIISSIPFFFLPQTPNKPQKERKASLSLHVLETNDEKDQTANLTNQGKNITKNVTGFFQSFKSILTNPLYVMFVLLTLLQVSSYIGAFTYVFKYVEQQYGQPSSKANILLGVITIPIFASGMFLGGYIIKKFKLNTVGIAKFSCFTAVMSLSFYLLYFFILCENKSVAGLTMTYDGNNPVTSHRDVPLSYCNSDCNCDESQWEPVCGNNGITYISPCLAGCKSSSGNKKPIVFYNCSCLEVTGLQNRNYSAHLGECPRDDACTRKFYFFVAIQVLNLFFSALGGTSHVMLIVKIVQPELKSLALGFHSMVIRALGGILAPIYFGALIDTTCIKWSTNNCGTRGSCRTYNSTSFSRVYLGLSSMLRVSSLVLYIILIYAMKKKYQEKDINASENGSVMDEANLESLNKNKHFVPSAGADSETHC
compound,measurement,setting,value
CC(=O)NC[C@H]1CN(c2ccc(N3CCOCC3)c(F)c2)C(=O)O1 [Linezolid],substrate for OATP1B1,human OATP1B1,not a substrate
same,substrate for OATP1B3,human OATP1B3,not a substrate
same,inhibitor of MAT1,MAT1,not an inhibitor
same,substrate for OCT2,OCT2,not a substrate
same,substrate for OCT3,OCT3,not a substrate
same,substrate for MATE2-K,MATE2-K,not a substrate
same,inhibitor of OATP2B1,OATP2B1,inhibitor
